These results are taken from ChEMBL document CHEMBL3769376, “Discovery of I-BRD9, a Selective Cell Active Chemical Probe for Bromodomain Containing Protein 9 Inhibition” (J Med Chem, 2016).

The target of series [1] is Sodium channel protein type 5 subunit alpha (Homo sapiens, UniProt Q14524). Description: Inhibition of human Nav1.5 channel at <5 uM by electrophysiology.
The target of series [2] is Acetylcholine receptor subunit alpha (Homo sapiens) (UniProt P02708). Description: Inhibition of human alpha1 nACHR assessed as change in intracellular calcium level at <5 uM by fluorescence assay. The series is classed as cell-based.
Series [3] deals with Voltage-dependent L-type calcium channel subunit alpha-1C (Homo sapiens, UniProt Q13936). In words: Inhibition of human Cav1.2 channel at <5 uM by electrophysiology.
Series [4] in a line: Lipophilicity, logD of the compound at pH 7.4. The class given is physicochemical. The settings on record: buffer.
The nature of series [5]: Permeability of the compound by PAMPA. The settings on record: read-out: permeability. The series is classed as ADME.
Series [6] deals with Adenosine receptor A2a (Homo sapiens) (UniProt P29274). In words: Agonist activity at human Adenosine A2a receptor at <5 uM by TR-FRET assay.
The target of series [7] is Alpha-2C adrenergic receptor (Homo sapiens) (UniProt P18825). Description: Inhibition of human alpha 2c adrenergic receptor at <5 uM by TR-FRET assay.
Sequence of Alpha-2C adrenergic receptor (Homo sapiens) (P18825 whole entry): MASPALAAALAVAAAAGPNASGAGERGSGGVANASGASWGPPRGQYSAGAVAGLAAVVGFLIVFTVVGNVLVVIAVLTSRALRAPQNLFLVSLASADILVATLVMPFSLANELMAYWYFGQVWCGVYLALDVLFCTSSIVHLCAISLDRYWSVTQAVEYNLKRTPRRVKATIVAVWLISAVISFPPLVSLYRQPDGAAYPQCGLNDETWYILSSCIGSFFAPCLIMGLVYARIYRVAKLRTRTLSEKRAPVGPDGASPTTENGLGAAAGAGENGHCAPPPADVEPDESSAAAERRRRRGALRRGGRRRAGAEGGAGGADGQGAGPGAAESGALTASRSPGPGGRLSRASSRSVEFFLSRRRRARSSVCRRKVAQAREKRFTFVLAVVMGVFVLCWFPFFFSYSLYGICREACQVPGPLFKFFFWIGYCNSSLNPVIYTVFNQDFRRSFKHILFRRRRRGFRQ
In series [8] the target is D(2) dopamine receptor (Homo sapiens) (UniProt P14416). In words: Agonist activity at human D2 dopamine receptor at <5 uM by scintillation proximity assay.
Sequence of D(2) dopamine receptor (Homo sapiens) (P14416 whole entry): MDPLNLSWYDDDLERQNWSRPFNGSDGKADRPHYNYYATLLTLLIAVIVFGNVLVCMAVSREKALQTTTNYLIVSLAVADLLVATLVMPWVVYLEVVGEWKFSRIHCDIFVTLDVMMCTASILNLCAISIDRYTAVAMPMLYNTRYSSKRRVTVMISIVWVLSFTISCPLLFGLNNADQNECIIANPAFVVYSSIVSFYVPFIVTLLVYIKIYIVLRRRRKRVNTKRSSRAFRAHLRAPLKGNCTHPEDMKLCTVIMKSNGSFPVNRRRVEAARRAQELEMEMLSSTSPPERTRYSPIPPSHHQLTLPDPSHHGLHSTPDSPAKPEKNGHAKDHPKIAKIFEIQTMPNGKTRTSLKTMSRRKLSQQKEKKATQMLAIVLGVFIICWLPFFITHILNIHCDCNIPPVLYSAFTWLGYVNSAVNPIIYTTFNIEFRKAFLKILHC
In series [9] the target is Muscarinic acetylcholine receptor M1 (Homo sapiens) (UniProt P11229). Description: Agonist activity at human muscarinic 1 receptor assessed as change in intracellular calcium level at <5 uM by fluorescence assay. The series is classed as functional, cell-based.
Sequence of Muscarinic acetylcholine receptor M1 (Homo sapiens) (P11229 whole entry): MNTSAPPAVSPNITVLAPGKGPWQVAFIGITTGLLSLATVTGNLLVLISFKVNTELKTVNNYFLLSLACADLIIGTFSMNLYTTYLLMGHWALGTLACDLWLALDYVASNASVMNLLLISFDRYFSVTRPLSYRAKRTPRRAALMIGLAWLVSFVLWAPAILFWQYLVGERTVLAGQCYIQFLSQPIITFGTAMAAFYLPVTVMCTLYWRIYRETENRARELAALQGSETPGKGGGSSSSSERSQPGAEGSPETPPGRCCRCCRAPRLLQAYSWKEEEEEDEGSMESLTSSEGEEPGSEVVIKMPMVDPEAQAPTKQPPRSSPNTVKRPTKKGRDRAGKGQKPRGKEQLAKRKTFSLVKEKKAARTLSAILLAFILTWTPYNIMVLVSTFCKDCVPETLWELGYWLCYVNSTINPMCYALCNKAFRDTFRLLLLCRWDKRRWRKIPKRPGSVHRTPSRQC
For series [10], the target named is Cannabinoid receptor 2 (Homo sapiens) (UniProt P34972). Description: Agonist activity at human CB2 receptor at <5 uM by Yeast FDLu assay.
Sequence of Cannabinoid receptor 2 (Homo sapiens) (P34972 whole entry): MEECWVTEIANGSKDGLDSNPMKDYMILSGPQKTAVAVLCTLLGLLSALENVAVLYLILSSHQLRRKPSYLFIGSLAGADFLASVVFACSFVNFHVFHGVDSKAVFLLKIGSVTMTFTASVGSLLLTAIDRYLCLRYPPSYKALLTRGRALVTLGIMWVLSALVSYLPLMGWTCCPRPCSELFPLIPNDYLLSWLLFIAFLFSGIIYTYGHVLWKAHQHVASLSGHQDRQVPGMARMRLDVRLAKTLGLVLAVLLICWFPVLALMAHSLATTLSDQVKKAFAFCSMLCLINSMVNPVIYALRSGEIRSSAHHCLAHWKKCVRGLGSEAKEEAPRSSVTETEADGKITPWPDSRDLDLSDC
Series [11] addresses 5-hydroxytryptamine receptor 1B (Homo sapiens) (UniProt P28222). In words: Agonist activity at human 5HT1B receptor at <5 uM by scintillation proximity assay.
Series [12] has the same target. Description: Antagonist activity at human 5HT1B receptor at <5 uM by scintillation proximity assay.
For series [13], the target named is 5-hydroxytryptamine receptor 2A (Homo sapiens) (UniProt P28223). Description: Agonist activity at human 5HT2A receptor by assessed as change in intracellular calcium level at <5 uM by fluorescence assay. The class given is functional, cell-based.
Sequence of 5-hydroxytryptamine receptor 2A (Homo sapiens) (P28223 whole entry): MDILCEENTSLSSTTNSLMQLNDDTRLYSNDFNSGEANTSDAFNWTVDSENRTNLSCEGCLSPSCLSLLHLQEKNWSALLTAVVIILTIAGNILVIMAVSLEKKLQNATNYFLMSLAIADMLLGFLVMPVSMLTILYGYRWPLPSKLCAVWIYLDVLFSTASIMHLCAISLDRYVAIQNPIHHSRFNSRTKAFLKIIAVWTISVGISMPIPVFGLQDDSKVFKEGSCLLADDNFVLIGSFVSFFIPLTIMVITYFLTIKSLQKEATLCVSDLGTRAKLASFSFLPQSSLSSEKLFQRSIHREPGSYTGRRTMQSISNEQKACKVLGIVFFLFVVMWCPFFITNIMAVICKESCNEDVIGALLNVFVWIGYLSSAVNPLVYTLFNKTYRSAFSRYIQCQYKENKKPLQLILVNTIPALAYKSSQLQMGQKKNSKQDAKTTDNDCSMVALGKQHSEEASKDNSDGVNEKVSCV
Series [14] has the same target. In words: Antagonist activity at human 5HT2A receptor assessed as change in intracellular calcium level at <5 uM by fluorescence assay. The series is classed as functional, cell-based.
Series [15] has as its target 5-hydroxytryptamine receptor 3A (Homo sapiens) (UniProt P46098). Description: Antagonist activity at human 5HT3 receptor assessed as change in intracellular calcium level at <5 uM by fluorescence assay. The series is classed as cell-based.
The target of series [16] is Nuclear receptor subfamily 1 group I member 2 (Homo sapiens, UniProt O75469). Description: Agonist activity at human PXR at <5 uM by luciferase reporter gene assay.
Sequence of Nuclear receptor subfamily 1 group I member 2 (O75469 whole entry): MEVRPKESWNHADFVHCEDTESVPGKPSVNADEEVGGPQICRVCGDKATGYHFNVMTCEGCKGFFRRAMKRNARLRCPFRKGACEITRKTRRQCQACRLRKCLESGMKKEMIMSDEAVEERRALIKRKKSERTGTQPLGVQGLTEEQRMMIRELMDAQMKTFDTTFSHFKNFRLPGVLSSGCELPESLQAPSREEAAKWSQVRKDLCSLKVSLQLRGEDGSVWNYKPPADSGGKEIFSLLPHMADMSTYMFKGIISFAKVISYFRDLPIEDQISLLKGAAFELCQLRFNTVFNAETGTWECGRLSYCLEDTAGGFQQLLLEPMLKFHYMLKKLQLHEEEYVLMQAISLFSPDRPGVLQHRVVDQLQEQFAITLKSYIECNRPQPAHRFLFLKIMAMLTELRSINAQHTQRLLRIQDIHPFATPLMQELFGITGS
For series [17], the target named is Sodium-dependent noradrenaline transporter (Homo sapiens) (UniProt P23975). In words: Antagonist activity at human NE transporter at <5 uM by scintillation proximity assay.
In series [18] the target is Sodium-dependent serotonin transporter (Homo sapiens) (UniProt P31645). Description: Antagonist activity at human SERT transporter at <5 uM by scintillation proximity assay.
In series [19] the target is Amine oxidase [flavin-containing] B (Homo sapiens, UniProt P27338). Description: Inhibition of human MAO-B at <5 uM by FLINT assay.
Sequence of Amine oxidase [flavin-containing] B (P27338 whole entry): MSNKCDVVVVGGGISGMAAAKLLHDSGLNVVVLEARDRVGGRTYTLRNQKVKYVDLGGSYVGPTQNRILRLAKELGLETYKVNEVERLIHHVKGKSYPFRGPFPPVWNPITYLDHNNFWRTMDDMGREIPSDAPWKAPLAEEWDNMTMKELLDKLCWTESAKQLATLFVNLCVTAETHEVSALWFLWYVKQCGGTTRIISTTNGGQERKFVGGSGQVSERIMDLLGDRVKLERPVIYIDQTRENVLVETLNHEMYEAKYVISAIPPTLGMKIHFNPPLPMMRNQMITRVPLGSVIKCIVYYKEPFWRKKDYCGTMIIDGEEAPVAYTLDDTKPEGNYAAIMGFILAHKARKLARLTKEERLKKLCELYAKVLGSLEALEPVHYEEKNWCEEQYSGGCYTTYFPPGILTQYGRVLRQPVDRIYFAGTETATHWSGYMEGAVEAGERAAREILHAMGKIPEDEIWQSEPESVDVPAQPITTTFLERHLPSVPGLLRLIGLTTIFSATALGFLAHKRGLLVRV
In series [20] the target is cGMP-inhibited 3',5'-cyclic phosphodiesterase 3A (Homo sapiens) (UniProt Q14432). In words: Inhibition of human PDE3A at <5 uM by luminescence assay.
In series [21] the target is Acetylcholinesterase (Homo sapiens) (UniProt P22303). Description: Inhibition of human acetylcholinesterase at <5 uM by mass spectrometry.
Sequence of Acetylcholinesterase (Homo sapiens) (P22303 whole entry): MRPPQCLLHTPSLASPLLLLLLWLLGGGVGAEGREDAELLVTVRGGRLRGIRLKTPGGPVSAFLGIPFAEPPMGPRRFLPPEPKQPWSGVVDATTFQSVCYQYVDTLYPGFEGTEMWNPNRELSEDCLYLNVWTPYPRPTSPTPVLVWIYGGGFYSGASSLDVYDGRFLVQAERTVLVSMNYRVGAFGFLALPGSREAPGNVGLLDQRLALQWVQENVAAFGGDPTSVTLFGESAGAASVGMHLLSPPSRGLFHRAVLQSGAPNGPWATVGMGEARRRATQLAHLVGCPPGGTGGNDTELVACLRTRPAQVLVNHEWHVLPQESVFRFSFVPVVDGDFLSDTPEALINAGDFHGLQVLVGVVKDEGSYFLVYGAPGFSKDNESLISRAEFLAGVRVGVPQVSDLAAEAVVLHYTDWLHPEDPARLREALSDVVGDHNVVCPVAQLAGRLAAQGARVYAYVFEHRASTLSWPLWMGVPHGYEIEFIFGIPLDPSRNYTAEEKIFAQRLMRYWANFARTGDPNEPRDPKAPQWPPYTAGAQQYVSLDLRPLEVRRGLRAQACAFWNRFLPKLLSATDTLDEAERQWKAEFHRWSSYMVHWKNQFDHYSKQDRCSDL
Another series addresses Cytochrome P450 3A4 (Homo sapiens, UniProt P08684). In words: Inhibition of CYP3A4 (unknown origin) preincubated with substrate at <5 uM by mass spectrometry. The series is classed as ADME.
Series [22] deals with T1, Bromodomain-containing protein 9 (Homo sapiens) (UniProt Q9H8M2).
T1 sequence (whole entry): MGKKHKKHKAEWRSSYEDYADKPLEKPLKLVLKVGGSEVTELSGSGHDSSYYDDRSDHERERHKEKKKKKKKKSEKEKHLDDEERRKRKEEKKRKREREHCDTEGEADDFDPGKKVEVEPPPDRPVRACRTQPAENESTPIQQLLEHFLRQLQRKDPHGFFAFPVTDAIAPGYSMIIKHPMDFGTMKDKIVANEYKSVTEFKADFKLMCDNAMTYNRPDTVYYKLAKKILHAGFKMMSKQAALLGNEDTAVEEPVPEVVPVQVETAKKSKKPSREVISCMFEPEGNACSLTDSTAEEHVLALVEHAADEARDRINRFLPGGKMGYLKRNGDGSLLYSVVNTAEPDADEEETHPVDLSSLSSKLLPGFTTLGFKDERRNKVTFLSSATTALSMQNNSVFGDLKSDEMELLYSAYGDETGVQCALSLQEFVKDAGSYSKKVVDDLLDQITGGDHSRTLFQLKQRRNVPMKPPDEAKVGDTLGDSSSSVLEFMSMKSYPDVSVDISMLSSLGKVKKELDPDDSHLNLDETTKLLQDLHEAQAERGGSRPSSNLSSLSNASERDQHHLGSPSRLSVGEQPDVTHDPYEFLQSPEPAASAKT
The conditions noted are these: Kasumi 1, 10 uM.
Description: Inhibition of BRD9 in human Kasumi-1 cells assessed as downregulation of FES gene at 10 uM after 6 hrs by qPCR method

For series [23], the target named is T1, Bromodomain-containing protein 9 (Homo sapiens). The settings on record: Kasumi 1, 10 uM. The source holds these as a separate data set.
Description: Inhibition of BRD9 in human Kasumi-1 cells assessed as downregulation of SAMSN1 gene at 10 uM after 6 hrs by qPCR method

Each structure is given as a SMILES string. Activity calls are given as the source filed them. The rule behind the calls is not given here.

Sequence of 5-hydroxytryptamine receptor 1B (Homo sapiens) (P28222 whole entry): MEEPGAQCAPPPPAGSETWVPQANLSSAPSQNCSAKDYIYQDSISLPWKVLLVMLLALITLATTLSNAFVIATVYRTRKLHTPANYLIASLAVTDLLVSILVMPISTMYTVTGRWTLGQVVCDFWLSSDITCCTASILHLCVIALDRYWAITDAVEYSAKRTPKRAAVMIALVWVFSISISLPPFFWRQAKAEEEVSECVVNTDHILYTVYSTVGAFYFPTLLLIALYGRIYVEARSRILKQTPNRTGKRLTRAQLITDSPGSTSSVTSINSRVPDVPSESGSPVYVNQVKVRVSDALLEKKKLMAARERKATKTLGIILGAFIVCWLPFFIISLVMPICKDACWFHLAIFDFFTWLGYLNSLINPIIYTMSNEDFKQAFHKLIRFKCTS
Sequence of 5-hydroxytryptamine receptor 3A (Homo sapiens) (P46098 whole entry): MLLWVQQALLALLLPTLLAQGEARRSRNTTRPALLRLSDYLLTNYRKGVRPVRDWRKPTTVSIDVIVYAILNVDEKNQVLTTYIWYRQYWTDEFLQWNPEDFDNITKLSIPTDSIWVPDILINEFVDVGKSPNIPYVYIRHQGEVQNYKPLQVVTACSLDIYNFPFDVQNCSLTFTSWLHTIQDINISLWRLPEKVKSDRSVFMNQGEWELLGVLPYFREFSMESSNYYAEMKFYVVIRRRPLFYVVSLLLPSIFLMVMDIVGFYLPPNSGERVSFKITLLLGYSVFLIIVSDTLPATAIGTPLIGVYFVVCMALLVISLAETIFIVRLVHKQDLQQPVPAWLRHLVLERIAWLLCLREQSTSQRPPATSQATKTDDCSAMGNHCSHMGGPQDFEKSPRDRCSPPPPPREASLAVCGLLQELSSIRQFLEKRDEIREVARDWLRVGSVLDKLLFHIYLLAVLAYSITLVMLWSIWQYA

With `CCn1cc(-c2cccc(C(F)(F)F)c2)c2sc(C(=N)NC3CCS(=O)(=O)CC3)cc2c1=O`, the “inhibition (INH)” value (in [1]; in series [3]; in series [19]; against Cytochrome P450 3A4) was “Not Active” throughout. Besides, the inhibition result in [2], in series [7], in [12], in [14], in [15] and in [17] was “inactive” throughout. Further, the inhibition entry in series [18], in [20] and in series [21] was “inactive” in each case. Further, the logD in series [4] turned out to be 3.7. Further, in series [5], the Papp stood at 21 ×10⁻⁶ cm/s. Moreover, the outcome in series [6], in [8], in series [9], in [10], in [11] and in [13] was inactive. In addition, the Activity entry in series [16] was “Not Active”. In addition, the inhibition entry in [22] and in series [23] was “Active” each time.
